The text below walks through data of patent publication US8143025B2, “Antibodies against vascular endothelial growth factor receptor-1” (ImClone LLC, priority 2004, dated 2012).

Assay [1] deals with ERK1/2 downstream signaling. In words: ERK1/2 activation Western blot, PAE-VEGFR-I cells. The format is cell-based. The following applies: PAE-VEGFR-I transfectant cells, FIGS. 12-14. Here is the method:
(§1) Autophosphorylation of the VEGFR-I induced by its ligands and resulting activation of a classical MAPK, extracellular signal-regulated protein kinases 1Z2 (ERK1Z2) and the PBK/Atk downstrean signaling pathways mediate cellular biological responses such as proliferation, motility, survival, and differentiation. The ability of an anti-VEGFR-1 antibody to inhibit phosphorylation of VEGFR-I and activation of ERK1 Z2 and the Akt kinases downstream signaling were determined by using the PAE-VEGFR-I transfectant and BT474 breast carcinoma cells.
PAE-VEGFR-I and BT474 cells were seeded at a density of 5×10^5Zwell in […] plates and cultured in serum-free medium for 18-48 hours. After replacing the culture medium, the cells were treated at 37° C. with anti-VEGFR-I antibody clones 6F9, 15F1 1, and 18F1 or isotype control for 1 hour and then incubated with 50 ng/ml of VEGF or 100 ng/ml of PlGF for 10 minutes. […] Western blot of phosphorylated VEGFR-I was detected using […] antibody (PY-20, Santa Cruz Biotechnology, Santa Cruz, Calif.). Proteins were detected using and […] chemiluminescence system (ECL)(Amersham Pharmacia Biotech, Piscataway, N.J.), and quantified by densitometry using NIH Image (National Institute of Mental Health, Bethesda, Md.). […]
A general note: A western blot detects proteins with antibodies after separation by electrophoresis.

A further assay concerns the target huVEGFR-2-AP (Homo sapiens, UniProt P35968). In words: Plate-bound receptor binding ELISA (Example 2B). The following applies: FIG. 32C, 100 ng/well. Here is the method:
(§2) HuVEGFR-I-Fc, mouse VEGFR-I-AP (hnClone Systems) or huVEGFR-2-AP (ImClone Systems) (100 ng/well) was coated on 96 strip-well plates and blocked with 5% milk/PBS. The binding of 18F1 and other anti-human VEGFR-I antibodies or a rat anti-mouse VEGFR-I antibody, MF1 (ImClone Systems, ref. 18), to plate bound VEGFR-I or VEGFR-2 was evaluated as described for the hybridoma supernatant screening above, except that bound antibody was detected with a goat anti-human kappa-HRP antibody (Bio Source International, Camarillo, Calif.) for 18F1 and anti-human VEGFR-2 antibody ICl 1. or a goat anti-rat IgG-HRP antibody (BioSource International) for MF1.

Another assay deals with T1, HuVEGFR-I-Fc (Homo sapiens, UniProt P17948).
T1 construct: soluble recombinant VEGFR-I Fc (rhuVEGFR-1 Fc) proteins were purchased from (R&D Systems Inc); purchased R&D Systems Inc
Description: Plate-bound receptor binding ELISA (Example 2B). Conditions: FIG. 32A, 100 ng/well. Here is the method:
as §2

The test system of the next assay is MDA-MB-231 xenograft. Description: MDA-MB-231 breast tumor xenograft. Type of assay: in vivo, mouse.
The target of assay [2] is T2, DU4475 human breast carcinoma cells (Homo sapiens, UniProt P17948).
T2 construct: host or cells: DU4475 human breast carcinoma cells
In words: Flow cytometry analysis, DU4475 cells. The format is binding. Conditions: FIG. 8B. How it is done:
Aliquots of 10^6PAE-VEGFR-I cells were harvested from subconfluent cultures and incubated with anti-VEGFR-I antibody clones 6F9, 13G12, F11, and 18F1 in PBS with 1% bovine serum albumin (BSA) and 0.02% sodium azide (staining buffer) for one hour on ice. Aliquots of 10^6DU4475 human breast carcinoma cells were harvested from subconfluent cultures and incubated with anti-VEGFR-1 antibody clone 18F1 in PBS with 1% bovine serum albumin (BSA) and 0.02% sodium azide (staining buffer) for one hour on ice. A matched IgG isotype (Jackson ImmunoResearch, West Grove, Pa.) was used as a negative control. Cells were washed twice with flow buffer and then incubated with a fluorescein isothiocyanate (FITC)-labeled goat anti-human IgG antibody (BioSource International, Camarillo, Calif.) in staining buffer for 30 minutes on ice. Cells were washed as above and analyzed on an Epics XL flow cytometer (Beckman-Coulter, Hialeah, Fla.). Dead cells and debris were eliminated from the analysis on the basis of forward and sideways light scatter. The mean fluorescent intensity units (MFRJ) were calculated as the mean log fluorescence multiplied by the percentage of positive population.
(In general: Flow cytometry measures light scatter and fluorescence of single cells or particles in a stream.)

A further assay concerns HT-29 xenograft. In words: HT-29 colon cancer xenograft. The format is in vivo, mouse. Conditions: monotherapy, FIG. 26A. How it is done: Female athymic nu/nu mice, 6-8 weeks of age, were injected subcutaneously on the lateral dorsal surface with 0.4 mL volume of a suspension containing a human tumor cell line in media, diluted 1:1 with MATRIGEL™ (BD Biosciences). The cell lines used in xenograft models, with the cell doses indicated in parenthesis (10^6 cells/mouse), were: human colon carcinoma cell lines DLD-I (5), GEO (5) and HT-29 (5); human breast carcinoma cell lines DU4475 (2), MDA-MB-231 (5), MDA-MB-435 (5), and BT474 (5). When tumors reached approximately 200-300 mm^3, mice were randomized by tumor size and divided into treatment groups. Tumor growth was evaluated approximately twice weekly, with tumor volume calculated as π/6* (Length*Width^2), where Length=longest diameter and Width=diameter perpendicular to Length. Tumor dimensions were measured with calipers. T/C % was calculated as 100*(Final Treatment Tumor Volume/Initial Treatment Tumor Volume)/(Final Control Tumor Volume/Initial Control Tumor Volume).
18F1 was diluted in 0.9% USP saline (Braun) or phosphate buffered saline (PBS) and administered intraperitoneally in a volume of 0.5 mL per mouse. The effect of treatment on tumor growth was analyzed using repeated measures analysis of variance (RM ANOVA), p<0.05 was considered significant.

The next assay concerns Akt. In words: Akt phosphorylation Western blot, BT474 cells. Type of assay: cell-based, human. The following applies: BT474 breast cancer cells, FIG. 15. How it is done: as §1
For evaluation of MAPK and Akt phosphorylation, BT474 cells were seeded at a density of 5×10^5/well in 12 well plates in serum-free conditions for 18 hours. Cells were treated at 37° C. with anti-VEGFR-1 antibody clone 18F1 or isotype control for 1 hour and then incubated with 50 ng/ml of VEGF or 100 ng/ml of PlGF for 5-10 minutes. Cell lysis, protein isolation and electroblotting were performed. Membranes were incubated with antibodies against phosphorylated p44/p42 MAP kinases (Thr202/Tyr204, Santa Cruz Biotechnology, Santa Cruz, Calif.) or phosphorylated Akt (Ser473, Cell Signaling Technology, Beverly, Mass.), at a concentration of 1 μg/ml, followed by incubation with a secondary IgG-HRP (1:5000). […]

“Also recorded” adds a separate entry of the source.

Sequence of huVEGFR-2-AP (P35968 20-764 limits assumed): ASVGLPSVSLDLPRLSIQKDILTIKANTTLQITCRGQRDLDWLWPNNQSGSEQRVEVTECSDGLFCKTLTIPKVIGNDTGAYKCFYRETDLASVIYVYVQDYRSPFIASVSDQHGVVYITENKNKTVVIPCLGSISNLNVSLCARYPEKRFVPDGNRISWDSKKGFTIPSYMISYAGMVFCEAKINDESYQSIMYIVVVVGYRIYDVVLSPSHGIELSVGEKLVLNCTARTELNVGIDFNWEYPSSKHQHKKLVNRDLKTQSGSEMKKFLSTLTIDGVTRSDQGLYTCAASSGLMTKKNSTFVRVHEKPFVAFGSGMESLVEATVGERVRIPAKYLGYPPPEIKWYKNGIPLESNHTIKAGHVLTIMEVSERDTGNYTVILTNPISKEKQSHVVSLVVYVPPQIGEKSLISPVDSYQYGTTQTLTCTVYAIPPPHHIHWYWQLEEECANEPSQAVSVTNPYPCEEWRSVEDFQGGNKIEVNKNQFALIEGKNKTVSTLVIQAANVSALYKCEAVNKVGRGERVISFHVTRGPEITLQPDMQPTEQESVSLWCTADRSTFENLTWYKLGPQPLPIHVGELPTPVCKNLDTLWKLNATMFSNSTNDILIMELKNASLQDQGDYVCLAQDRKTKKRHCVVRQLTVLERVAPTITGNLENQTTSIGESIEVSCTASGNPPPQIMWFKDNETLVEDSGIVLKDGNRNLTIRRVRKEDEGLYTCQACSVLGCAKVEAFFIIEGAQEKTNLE
T2 sequence (P17948 27-1338): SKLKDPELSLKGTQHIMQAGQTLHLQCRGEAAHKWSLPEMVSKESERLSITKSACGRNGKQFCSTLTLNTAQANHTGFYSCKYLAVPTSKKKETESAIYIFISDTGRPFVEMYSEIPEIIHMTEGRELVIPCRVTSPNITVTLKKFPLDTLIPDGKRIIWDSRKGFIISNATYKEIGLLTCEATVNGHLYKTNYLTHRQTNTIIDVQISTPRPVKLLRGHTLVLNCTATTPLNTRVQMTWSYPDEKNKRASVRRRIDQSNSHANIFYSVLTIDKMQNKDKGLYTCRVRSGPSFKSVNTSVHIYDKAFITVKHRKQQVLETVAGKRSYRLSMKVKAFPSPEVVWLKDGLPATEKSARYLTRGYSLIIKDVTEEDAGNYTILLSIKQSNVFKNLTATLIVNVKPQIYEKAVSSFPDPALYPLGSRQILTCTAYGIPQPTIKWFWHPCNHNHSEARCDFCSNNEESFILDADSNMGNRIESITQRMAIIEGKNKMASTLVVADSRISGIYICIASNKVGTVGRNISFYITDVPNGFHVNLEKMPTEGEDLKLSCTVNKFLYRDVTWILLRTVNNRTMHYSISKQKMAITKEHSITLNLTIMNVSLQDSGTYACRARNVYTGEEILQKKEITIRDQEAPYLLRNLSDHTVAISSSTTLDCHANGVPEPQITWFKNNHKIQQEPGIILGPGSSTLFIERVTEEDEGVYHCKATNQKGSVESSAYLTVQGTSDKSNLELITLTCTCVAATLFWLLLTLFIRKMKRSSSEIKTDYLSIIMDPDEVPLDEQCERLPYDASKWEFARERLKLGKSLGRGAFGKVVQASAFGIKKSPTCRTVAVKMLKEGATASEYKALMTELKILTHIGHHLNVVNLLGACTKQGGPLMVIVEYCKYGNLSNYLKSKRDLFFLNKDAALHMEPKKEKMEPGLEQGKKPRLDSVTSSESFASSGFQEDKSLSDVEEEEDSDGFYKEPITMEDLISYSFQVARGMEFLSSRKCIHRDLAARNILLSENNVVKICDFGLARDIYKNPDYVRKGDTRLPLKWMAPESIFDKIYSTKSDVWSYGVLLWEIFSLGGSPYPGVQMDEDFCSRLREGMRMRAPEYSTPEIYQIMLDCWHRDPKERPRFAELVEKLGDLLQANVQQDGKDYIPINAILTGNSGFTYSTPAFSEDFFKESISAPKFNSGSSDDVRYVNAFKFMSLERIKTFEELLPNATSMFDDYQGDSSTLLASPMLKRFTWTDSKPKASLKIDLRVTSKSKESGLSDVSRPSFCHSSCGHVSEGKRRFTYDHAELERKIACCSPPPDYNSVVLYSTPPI
T1 sequence (P17948 27-758 limits assumed): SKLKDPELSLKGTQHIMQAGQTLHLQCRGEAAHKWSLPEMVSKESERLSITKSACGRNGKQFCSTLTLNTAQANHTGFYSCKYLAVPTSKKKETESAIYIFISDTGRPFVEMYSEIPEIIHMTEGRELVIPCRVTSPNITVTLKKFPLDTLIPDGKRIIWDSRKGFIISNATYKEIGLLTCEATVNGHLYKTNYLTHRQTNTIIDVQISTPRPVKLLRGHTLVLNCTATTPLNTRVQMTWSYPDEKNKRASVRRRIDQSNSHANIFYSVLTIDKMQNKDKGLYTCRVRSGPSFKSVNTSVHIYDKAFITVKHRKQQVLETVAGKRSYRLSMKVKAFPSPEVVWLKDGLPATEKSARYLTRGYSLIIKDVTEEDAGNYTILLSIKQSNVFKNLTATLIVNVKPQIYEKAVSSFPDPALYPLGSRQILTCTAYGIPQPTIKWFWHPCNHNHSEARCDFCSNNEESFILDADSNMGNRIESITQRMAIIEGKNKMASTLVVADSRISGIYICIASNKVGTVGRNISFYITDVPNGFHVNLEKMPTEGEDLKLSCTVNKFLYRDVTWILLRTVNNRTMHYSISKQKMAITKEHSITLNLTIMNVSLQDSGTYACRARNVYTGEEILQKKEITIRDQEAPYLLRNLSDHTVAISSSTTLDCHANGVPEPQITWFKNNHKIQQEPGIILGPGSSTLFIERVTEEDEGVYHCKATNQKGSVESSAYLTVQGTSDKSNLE
Description for MDA-MB-231 xenograft: Mice in control groups received an equal volume of saline solution. Treatment of animals was continued for the duration of the experiment. Tumors were measured twice each week with calipers. Tumor volumes were calculated using the formula [π/6 (w1×w2×w2)], where “w1” represents the largest tumor diameter and “w2” represents the smallest tumor diameter. […] When tumors reached approximately 200-300 mm^3, mice were randomized by tumor size and divided into treatment groups. Tumor growth was evaluated approximately twice weekly, with tumor volume calculated as π/6* (Length*Width^2), where Length=longest diameter and Width=diameter perpendicular to Length. Tumor dimensions were measured with calipers. T/C % was calculated as 100*(Final Treatment Tumor Volume/Initial Treatment Tumor Volume)/(Final Control Tumor Volume/Initial Control Tumor Volume). […] The effect of treatment on tumor growth was analyzed using repeated measures analysis of variance (RM ANOVA), p<0.05 was considered significant. […] Antibody treatments administered at a constant dose per mouse were administered in a volume of 0.5 mL per mouse. Antibody and cytotoxic treatments administered at a dose proportional to body weight were given in a volume of 10 μL per gram body weight. […] AU treatments were administered i.p. The effect of treatments on tumor growth were analyzed using repeated measures analysis of variance (RM ANOVA), p<0.05 was considered significant.

Consider “18F1: human anti-VEGFR-1 monoclonal antibody clone; VL SEQ ID NO: 16, VH SEQ ID NO: 20 [Clone 18F1]”, for which, in assay [1], the “PlGF and VEGF induced activation of ERK1/2 downstream signaling” value is given as “dramatically inhibited; also recorded: inhibition”. In addition, in the assay with huVEGFR-2-AP, the “reactivity with human VEGFR-2” value is reported as “no cross reactivity”. Further, the “reactivity with human VEGFR-I” value with HuVEGFR-I-Fc is reported as “specific reactivity”. Further, in the assay with MDA-MB-231 xenograft (0.5 or 1 mg per dose three times each week, ANOVA p<0.05, FIG. 20B), the “tumor growth of the MDA-MB-231 xenograft” value is “statistically significant suppression”. For the same substance, the “growth of MDA-MB-231 xenograft tumors” value in the assay with MDA-MB-231 xenograft (Example 9, intraperitoneal, p<0.05) is on record as “significantly (p<0.05) suppressed”. The “tumor growth inhibition, MDA-MB-231 xenograft” value in the assay with MDA-MB-231 xenograft (Example 11, p<0.05, FIG. 28A) is “significant tumor growth inhibition”. Also, the “binding reactivity with DU4475 human breast carcinoma” value in assay [2] was “binding reactivity”. Also, the “antitumor effect against HT-29 colon cancer xenografts” value in the assay on HT-29 xenograft is on record as “significant antitumor effect”. Also, the “PlGF or VEGF-stimulated phosphorylation of Akt” value with Akt is reported as “significantly blocked”.
